In patent publication US11998600B2, “Enhancing the therapeutic activity of an immune checkpoint inhibitor” (MaineHealth, priority 2015, dated 2024):

Experiments:
[1] = system: chick chorioallantoic membrane (CAM); experiment: Chick CAM angiogenesis assay, induction by RGD collagen peptides; format: in vivo; conditions: chick CAM
Method: The chick chorioallantoic membrane (CAM) assays were carried out with some modifications (19). For all experiments CAMs of 10-day-old chick embryos obtained from Charles River (North Franklin, CT) were separated from the shell membrane. Filter discs either non-treated (inflammation assays) pretreated (angiogenesis assays) with cortisone acetate (3.0 mg/ml) containing RPMI only or FGF-2 (40 ng). CAMs were either non-treated or treated topically with Mab XL313, XL166 or a non-specific control antibody (10 μg/embryo every 24 h for three consecutive treatments). […] At the end of the incubation period the embryos were sacrificed and the CAM tissues were analyzed. Angiogenesis was quantified by counting the number of angiogenic branching blood vessels within the area of the filter disc. The angiogenic index was determined by subtracting the mean number of blood vessel branch points from untreated CAMs from each experimental condition. Eight to twelve embryos were used per condition and experiments were repeated at least three times.
To examine this possibility, the effects of the RGDKGE (SEQ ID NO. 1) containing collagen peptide on angiogenesis and inflammation in the chick CAM were assessed.

P38MAPK = P38MAPK phosphorylation in HUVECs attached to collagen peptides, Western blot; format: cell-based, human; conditions: cells attached to immobilized peptide; FIG. 6D
Method: Endothelial cells (HUVECs or HRMVECs) were incubated in serum free media with 1 mM MgCl2, 0.2 mM MnCl2 in the presence of a Src inhibitor, PP2, (10 μM) a P38MAPK inhibitor, SB202190 (10 μM) or vehicle only (DMSO) for 10 min at 37° C. Treated cells were then seeded on to immobilized P-1 and P-2 and lysates were collected at 15 min.
Whole cell and CAM tissue lysates were collected in RIPA buffer supplemented with 1× protease inhibitor and 1× phosphatase inhibitor and were run on polyacrylamide gels using denaturing conditions. Prior to loading the gels, 6× sample buffer was added to each of the lysates (final concentration 1×) and boiled for five minutes. Twenty to 50 μg of total protein were loaded into each lane. For detection of proteins larger than 50 kD, 10% gels were used; for proteins smaller than 50 kD 15% gels were used. Gels were run at 60 volts (v) until the dye front passed through the stacking gel, and then the voltage was increased to 100V for the remainder of the separation. Precision Plus protein standards (Bio-Rad) were used to visualize migration. Protein was transferred to nitrocellulose membranes using a wet tank system and blocked for 1 h using 10% non-fat dried milk in tris-buffered saline with 0.01% Tween-20 (TBS-T). […] Western blot bands were quantified using Image J software based on pixel intensity. […]

[2] = system: endothelial cells transduced with non-specific shRNA; experiment: Cell proliferation assay, endothelial cells transduced with non-specific shRNA; format: cell-based, human; conditions: soluble peptide; FIG. 8G
Method: HUVECs (WT, shYAP1 or control transfected) or HRMVECs were plated at 2,000 cells per well with complete EGM-2 media containing 2.0% FBS in the absence or presence of P-1, P-2 or P-C (100 ng/ml) and allowed to grow for 24 hours. Cell growth was monitored using a BrdU or MMT assay kits according to manufacturer's instructions. All assays were completed at least three times in triplicate wells.
Raw cells were transfected with 1 μg of HuSH shRNA plasmids for collagen type I, alpha 2 using Amaxa cell line nucleofector kit V (program #T024). Constructs expressing 21-nucleotide short hairpin RNAs (shRNA) targeting human YAP (shYAP) or non-targeting control (shNT, Sigma-Aldrich, SHC002) were used. Humantargeting shYAP1 lentiviral shRNA was obtained from the Thermo Scientific RNAi consortium (TRCN0000107625). Constructs were packaged into lentivirus, pseudotyped with the vesicular stomatitis virus glycoprotein. Transduction was performed by incubating cells with lentivirus, and stably transduced cells were subsequently used for studies. All cell lines were verified by morphology and mouse and human YAP-specific PCR. […] Endothelial cells were certified mycoplasma-negative by PCR (Lonza), and primary cell cultures were used within the indicated passage numbers. Cells were transduced and selected using puromycin.
Endothelial cells with YAP specific or non-specific shRNAs were transduced.

Fak = Fak phosphorylation in endothelial cells attached to collagen peptides; format: cell-based, human; conditions: serum free conditions
Method: Whole cell and CAM tissue lysates were collected in RIPA buffer supplemented with 1× protease inhibitor and 1× phosphatase inhibitor and were run on polyacrylamide gels using denaturing conditions. Prior to loading the gels, 6× sample buffer was added to each of the lysates (final concentration 1×) and boiled for five minutes. Twenty to 50 μg of total protein were loaded into each lane. For detection of proteins larger than 50 kD, 10% gels were used; for proteins smaller than 50 kD 15% gels were used. Gels were run at 60 volts (v) until the dye front passed through the stacking gel, and then the voltage was increased to 100V for the remainder of the separation. Precision Plus protein standards (Bio-Rad) were used to visualize migration. […] Western blot bands were quantified using Image J software based on pixel intensity.
Because both RGD containing peptides bind αvβ3 coupled with the differential effect of these peptides on angiogenesis and inflammation, it was determined whether the RGD peptides differentially altered αvβ3-mediated signaling. […] Therefore, the differential phosphorylation of these protein kinases following the early mechanical-mediated interactions with the RGD containing collagen peptides was assessed. […]

QGPRGDKGE [Mab P-2]
dose dependent induction of CAM angiogenesis ([1]; FIG. 5B): dose dependently enhanced angiogenesis
dose of maximum induction of angiogenesis ([1]; FIG. 5B): 100 ng/CAM
induction of CAM angiogenesis as compared to no treatment ([1]; peptides 100 ng/ml, FIG. 5C): significantly (P>0.05) induced angiogenesis
phosphorylation of P38MAPK in HUVECs, P-2 as compared to P-1 (P38MAPK): enhanced phosphorylation of P38MAPK
endothelial cell growth in control transduced cells [2]: enhanced growth
Fak phosphorylation following ligation of peptide (Fak): Minimal Fak phosphorylation
